What was measured:
[1] = tested on: NCI/ADR-RES; assay: Cytotoxicity (GI50) assay, NCI/ADR-RES; format: cell-based, human; settings: Homo sapiens, NCI/ADR-RES, read-out: Cancer cell lines GI50, NCI/ADR-RES
[2] = tested on: MES SA; assay: Cytotoxicity assay (CellTiter-Glo), MES SA; format: cell-based, human; settings: Homo sapiens, MES-SA, 72 h, read-out: Cancer cell lines IC50, MES SA
[3] = tested on: MDA-MB-435; assay: Cytotoxicity (GI50) assay, MDA-MB-435; format: cell-based, human; settings: Homo sapiens, MDA-MB-435, read-out: Cancer cell lines GI50, MDA-MB-435
[4] = tested on: HEK 293T; assay: Cytotoxicity assay (CellTiter-Glo), HEK 293T; format: cell-based; settings: Homo sapiens, 72 h, read-out: Cancer cell lines IC50, HEK 293T
[5] = tested on: Tubulin; assay: Tubulin assembly induction; format: biochemical; settings: […]
[6] = tested on: MES SA DX; assay: Cytotoxicity assay (CellTiter-Glo), MES SA DX; format: cell-based, human; settings: Homo sapiens, MES-SA, 72 h, read-out: Cancer cell lines IC50, MES SA DX
[7] = tested on: OVCAR-8; assay: Cytotoxicity (GI50) assay, OVCAR-8; format: cell-based, human; settings: Homo sapiens, OVCAR-8, read-out: Cancer cell lines GI50, OVCAR-8
[8] = tested on: SNB-75; assay: Cytotoxicity (GI50) assay, SNB-75; format: cell-based, human; settings: Homo sapiens, SNB-75, read-out: Cancer cell lines GI50, SNB-75
[9] = tested on: MCF-7; assay: Cytotoxicity (GI50) assay, MCF-7; format: cell-based, human; settings: Homo sapiens, MCF7, read-out: Cancer cell lines GI50, MCF-7

SMILES	GI50 [1]	IC50 [2]	GI50 [3]	IC50 [4]	EC50 [5]	IC50 [6]	GI50 [7]	GI50 [8]	GI50 [9]
CSc1nc(/C=C(\C)[C@@H]2C[C@@H]3N(CCOC(C)=O)[C@]3(C)CCC[C@H](C)[C@H](OC(C)=O)[C@@H](C)C(=O)C(C)(C)[C@@H](OC(C)=O)CC(=O)O2)co1 (stereo partly drawn) [compound 18, (1S,3S,7S,10R,11S,12S,16R)-17-(2-Acetoxyethyl)-8,8,10,12,16-pentamethyl-3-{(1E)-1-[2-(methylsulfanyl)-1,3-oxazol-4-yl]prop-1-en-2-yl}-5,9-dioxo-4-oxa-17-azabicyclo[14.1.0]-heptadecane-7,11-diyl diacetate]	2300 nM	116 nM	120 nM	17.9 nM	> 60000 nM	373 nM	290 nM	290 nM	1100 nM
C/C(=C\c1coc(C)n1)[C@@H]1C[C@@H]2N(CCO)[C@]2(C)CCC[C@H](C)[C@H](O)[C@@H](C)C(=O)C(C)(C)[C@@H](O)CC(=O)O1 (stereo partly drawn) [compound 16, (1S,3S,7S,10R,11S,12S,16R)-7,11-Dihydroxy-17-(2-hydroxyethyl)-8,8,10,12,16-pentamethyl-3-[(1E)-1-(2-methyl-1,3-oxazol-4-yl)prop-1-en-2-yl]-4-oxa-17-azabicyclo[14.1.0]heptadecane-5,9-dione]	190 nM	2.71 nM	11 nM	0.95 nM	38000 nM	79.4 nM	39 nM	19 nM	17 nM
C/C(=C\c1cnsn1)[C@@H]1C[C@@H]2N(CCO)[C@]2(C)CCC[C@H](C)[C@H](O)[C@@H](C)C(=O)C(C)(C)[C@@H](O)CC(=O)O1 (stereo partly drawn) [compound 28, (1S,3S,7S,10R,11S,12S,16R)-7,11-Dihydroxy-17-(2-hydroxyethyl)-8,8,10,12,16-pentamethyl-3-[(1E)-1-(1,2,5-thiadiazol-3-yl)prop-1-en-2-yl]-4-oxa-17-azabicyclo[14.1.0]heptadecane-5,9-dione]	680 nM	4.58 nM	3 nM	1.93 nM	39000 nM	264 nM	9 nM	8 nM	4.5 nM
C/C(=C\c1csc(C)n1)[C@@H]1C[C@@H]2O[C@]2(C)CCC[C@H](C)[C@H](O)[C@@H](C)C(=O)C(C)(C)[C@@H](O)CC(=O)O1 [compound 2, epothilone B, reference compound]	19 nM	0.28 nM	7 nM	0.26 nM	[…]	1.16 nM	15 nM	8 nM	9.2 nM
CC(=O)OCCN1[C@H]2C[C@@H](/C(C)=C/c3ccn(Cn4cccn4)n3)OC(=O)C[C@H](O)C(C)(C)C(=O)[C@H](C)[C@@H](O)[C@@H](C)CCC[C@]21C (stereo partly drawn) [compound 26, 2-[(1S,3S,7S,10R,11S,12S,16R)-7,11-Dihydroxy-8,8,10,12,16-pentamethyl-5,9-dioxo-3-{(1E)-1-[1-(1H-pyrazol-1-ylmethyl)-1H-pyrazol-3-yl]prop-1-en-2-yl}-4-oxa-17-azabicyclo[14.1.0]heptadec-17-yl]ethyl acetate]	2700 nM	5.9 nM	5.5 nM	1.72 nM	40000 nM	> 400 nM	38 nM	50 nM	38 nM
C/C(=C\c1ccn(Cn2cccn2)n1)[C@@H]1C[C@@H]2N[C@]2(C)CCC[C@H](C)[C@H](O)[C@@H](C)C(=O)C(C)(C)[C@@H](O)CC(=O)O1 [compound 33, (1S,3S,7S,10R,11S,12S,16R)-7,11-Dihydroxy-8,8,10,12,16-pentamethyl-3-{(1E)-1-[1-(1H-pyrazol-1-ylmethyl)-1H-pyrazol-3-yl]prop-1-en-2-yl}-4-oxa-17-azabicyclo[14.1.0]heptadecane-5,9-dione]	> 5000 nM	107 nM	160 nM	175 nM	> 60000 nM	> 2500 nM	1100 nM	450 nM	140 nM
C/C(=C\c1cc(-c2ccc(F)cc2)on1)[C@@H]1C[C@@H]2N(CCO)[C@]2(C)CCC[C@H](C)[C@H](O)[C@@H](C)C(=O)C(C)(C)[C@@H](O)CC(=O)O1 (stereo partly drawn) [compound 31, (1S,3S,7S,10R,11S,12S,16R)-3-{(1E)-1-[5-(4-Fluorophenyl)-1,2-oxazol-3-yl]prop-1-en-2-yl}-7,11-dihydroxy-17-(2-hydroxyethyl)-8,8,10,12,16-pentamethyl-4-oxa-17-azabicyclo[14.1.0]heptadecane-5,9-dione]	50 nM	1.41 nM	11 nM	0.32 nM	19000 nM	17.1 nM	70 nM	65 nM	13 nM
C/C(=C\c1csc(-c2nc(C)cs2)n1)[C@@H]1C[C@@H]2N[C@]2(C)CCC[C@H](C)[C@H](O)[C@@H](C)C(=O)C(C)(C)[C@@H](O)CC(=O)O1 [compound 32, (1S,3S,7S,10R,11S,12S,16R)-7,11-Dihydroxy-8,8,10,12,16-pentamethyl-3-[(1E)-1-(4′-methyl-2,2′-bi-1,3-thiazol-4-yl)prop-1-en-2-yl]-4-oxa-17-azabicyclo[14.1.0]heptadecane-5,9-dione]	170 nM	25.8 nM	11 nM	63.2 nM	43000 nM	> 400 nM	58 nM	68 nM	25 nM
CSc1cc(/C=C(\C)[C@@H]2C[C@@H]3N[C@]3(C)CCC[C@H](C)[C@H](O)[C@@H](C)C(=O)C(C)(C)[C@@H](O)CC(=O)O2)nn1C [compound 40, (1S,3S,7S,10R,11S,12S,16R)-7,11-Dihydroxy-8,8,10,12,16-pentamethyl-3-{(1E)-1-[1-methyl-5-(methylsulfanyl)-1H-pyrazol-3-yl]prop-1-en-2-yl}-4-oxa-17-azabicyclo[14.1.0]heptadecane-5,9-dione]	140 nM	0.36 nM	3.5 nM	0.59 nM	19000 nM	41.6 nM	100 nM	14 nM	3.5 nM
C/C(=C\c1csc(CCO)n1)[C@@H]1C[C@@H]2N(CCO)[C@]2(C)CCC[C@H](C)[C@H](O)[C@@H](C)C(=O)C(C)(C)[C@@H](O)CC(=O)O1 (stereo partly drawn) [compound 19, (1S,3S,7S,10R,11S,12S,16R)-7,11-Dihydroxy-17-(2-hydroxyethyl)-3-{(1E)-1-[2-(2-hydroxyethyl)-1,3-thiazol-4-yl]prop-1-en-2-yl}-8,8,10,12,16-pentamethyl-4-oxa-17-azabicyclo-[14.1.0]heptadecane-5,9-dione]	4800 nM	4.98 nM	12 nM	3.39 nM	> 60000 nM	> 1000 nM	38 nM	36 nM	40 nM
C/C(=C\c1snnc1C)[C@@H]1C[C@@H]2N(CCO)[C@]2(C)CCC[C@H](C)[C@H](O)[C@@H](C)C(=O)C(C)(C)[C@@H](O)CC(=O)O1 (stereo partly drawn) [compound 30, (1S,3S,7S,10R,11S,12S,16R)-7,11-Dihydroxy-17-(2-hydroxyethyl)-8,8,10,12,16-pentamethyl-3-[(1E)-1-(4-methyl-1,2,3-thiadiazol-5-yl)prop-1-en-2-yl]-4-oxa-17-azabicyclo[14.1.0]heptadecane-5,9-dione]	2800 nM	37.8 nM	48 nM	64 nM	> 60000 nM	> 2500 nM	210 nM	100 nM	58 nM
C/C(=C\c1csc(-c2nc(C)cs2)n1)[C@@H]1C[C@@H]2N(CCO)[C@]2(C)CCC[C@H](C)[C@H](O)[C@@H](C)C(=O)C(C)(C)[C@@H](O)CC(=O)O1 (stereo partly drawn) [compound 22, (1S,3S,7S,10R,11S,12S,16R)-7,11-Dihydroxy-17-(2-hydroxyethyl)-8,8,10,12,16-pentamethyl-3-[(1E)-1-(4′-methyl-2,2′-bi-1,3-thiazol-4-yl)prop-1-en-2-yl]-4-oxa-17-azabicyclo[14.1.0]-heptadecane-5,9-dione]	240 nM	1.86 nM	4 nM	1.55 nM	17000 nM	392 nM	18 nM	18 nM	7.5 nM
CC(=O)[C@@H]1C[C@@H]2N[C@]2(C)CCC[C@H](C)[C@H](O)[C@@H](C)C(=O)C(C)(C)[C@@H](O)CC(=O)O1 [compound 79, (1S,3S,7S,10R,11S,12S,16R)-3-Acetyl-7,11-dihydroxy-8,8,10,12,16-pentamethyl-4-oxa-17-azabicyclo[14.1.0]heptadecane-5,9-dione]	> 5000 nM	> 2500 nM	> 5000 nM	> 2500 nM	> 60000 nM	> 2500 nM	> 5000 nM	> 5000 nM	> 5000 nM

From patent US20210238187A1, “AZIRIDINE CONTAINING EPOTHILONE ANALOGS, METHODS OF SYNTHESIS, METHODS OF TREATMENT, AND DRUG CONJUGATES” (WILLIAM MARSH RICE UNIVERSITY, priority 2017, published 2021)
